# Assays:
# [1] = tested on: anti-Fy^b monoclonal antibody (LM447); experiment: LiquiChip Ni-NTA microsphere bead assay (Luminex 100), anti-Fy^b; format: binding, Murine; conditions: FIG. 11; peptide with C-terminal 6 Histidine tag; Luminex 100 Analyser
# Description: (§1) Further confirmation that the peptide mimotopes can specifically bind antibodies raised to native blood group antigens was achieved following the immobilisation of peptide mimotopes onto polystyrene LiquiChip Ni-NTA microsphere beads (Qiagen).
# (§2) Peptide mimotopes (e.g. Fyb16; RhD12) were synthesised with a C-terminal tag consisting of 6 Histidine amino acids. Stock solutions (4 μg/ml) of the 6×His tagged peptide mimotopes were prepared in PBS/0.1% BSA. The peptides were immobilised onto the beads using the Ni-NTA groups attached to the surface of the beads, as follows. A 50 μl volume of a 4 μg/ml peptide stock (Fyb16 or RhD12) was mixed with an equal volume of LiquiChip Ni-NTA beads (Bead 50 or Bead 52, respectively). Following incubation with mixing at 4° C. overnight, the Bead/peptide mixture was diluted with 900 μl of PBS/0.1% BSA. The Bead/peptide mixture was vortexed for 2 minutes and then a 10 μl volume was aliquoted into the well of a 96-well, round-bottomed. ELISA plate (Nunc). […] Confirmation of bound monoclonal antibody was determined by the detection of a phycoerythrin fluorochrome signal. The intensity of the signal equates to the quantity of monoclonal antibody bound to the immobilised peptide mimotope.
# [2] = tested on: anti-Fy^b monoclonal antibody (LM447); experiment: Modified gel agglutination assay with superparamagnetic TALON beads, anti-Fy^b; format: binding, Murine; conditions: FIG. 14; His-tagged peptide; TALON Dynabeads; NaCl gel card with sheep anti-mouse IgG; read visually; anti-RhD T27 as comparison chamber
# Description: (§3) The ability of peptide mimotopes to specifically bind antibodies was further tested using superparamagnetic polystyrene beads (TALON Dynabeads; Invitrogen) in a modified gel agglutination assay.
# (§4) A 50 μl volume of the magnetic beads was added to 700 μl of TBS (50 mM Tris-HCl pH7.5; 150 mM NaCl). Following mixing for 5 minutes at room temperature, the magnetic beads were isolated using a Magnetic Particle Concentrator (Invitrogen). The supernatant was discarded and the beads were washed for 5 minutes in 700 μl of TBS. The beads were again separated from the buffer using the MPC magnet, and then resuspended in 700 μl of TBS. Peptide mimotopes (e.g. Fyb16; RhD12) were synthesised with a C-terminal tag consisting of 6 Histidine amino acids. Stock solutions (100 μg/ml) of the 6×His tagged peptide mimotopes were prepared in PBS.
# To test the binding of a murine monoclonal antibody (e.g. LM447: anti-Fy^b monoclonal antibody), a 1 μl volume of sheep anti-mouse IgG is first added to the reaction chamber of an NaCl gel card and allowed to equilibrate with the gel matrix for 10 minutes at room temperature, prior to the addition of a 50 μl volume of diluted TALON beads, a 50 μl volume of diluted His-tagged peptide mimotope (e.g. Fyb16) and 100 μl of the test murine monoclonal antibody (e.g. LM447: anti-Fy^b). […] Again the reaction was read visually.
# [3] = tested on: anti-Fy^a monoclonal antibody (LM487); experiment: SPOTs membrane hybridisation with anti-Fy^a antibody; format: binding, Murine
# Description: (§5) The peptide mimotopes were synthesised by the SPOT method (Frank; 1992) using F-moc chemistry. The peptides were anchored to an amino-PEG derivatised cellulose membrane (Intavis AG) and synthesised as discrete spots. Synthesis was by stepwise elongation of the peptide chain from C-terminus to the N-terminus, by manual pipetting of the respective amino acids, according to the Sigma Genosys protocol. Incubation times were modified when using Intavis AG membranes. After addition of the final amino acid, the terminal residues and side chains of the peptides were deprotected and the membrane was washed with methanol; air dried and then stored at −20° C. prior to use.
# A membrane was placed in a 50 ml Falcon tube and blocked overnight at 4° C. with gentle agitation in TBS/0.25% Tween 20/5% skimmed milk powder. A 2 μg/ml dilution of the primary (1°) antibody (monoclonal or polyclonal) was prepared in TBS/0.25% Tween20/5% skimmed milk powder before incubation with the membrane for 1 hour at room temperature on a spiral rotor. Following 4 washes, each for 5 minutes with 20 ml of TBS/0.25% Tween20, the membrane was incubated for 1 hour at room temperature with a 1/5000 dilution of the secondary (2°) antibody, prepared in TBS/0.25% Tween20/5% skimmed milk powder. […] Bound antibody was detected by chemiluminescence. […]
# [4] = tested on: anti-Fy^a monoclonal antibody (LM487); experiment: Biopanning of phage-peptide libraries with anti-Fy^a LM487; format: binding, Murine; conditions: three rounds of panning
# Excerpt: (§6) Three different phage libraries from New England Biolabs. (Ph.D. 7 and Ph.D. 12 displaying linear 7- and 12-mer peptides, respectively and Ph.D. C7C displaying 7-mer peptides constrained by a disulphide bridge at their termini) and a linear 15mer library (kindly provided by Prof. George P. Smith, University of Missouri) were used in biopanning experiments with 10 different monoclonal antibodies and a polyclonal preparation (Table 1).
# (§7) For each target antibody/library combination, a separate well of a 96-well Immulon 4 flat-bottomed ELISA plate (Thermo Labsystems) was coated with 5 μg of antibody in 150 μl ELISA coating buffer (15 mM Na2CO3, 35 mM NaHCO3, pH9.6). Plates were sealed and incubated at 4° C. overnight. Unbound antibody was discarded and 350 μl of blocking buffer (0.1M NaHCO3/3% skimmed milk powder) was added to each well. Plates were sealed and incubated for 1 hour at 4° C. The blocking buffer was removed and the wells were washed six times with 300 μl TBS/0.1% Tween 20. Approximately 2×10^11 plaque forming units (pfu) in 100 μl TBS/0.1% Tween 20 were added to each well and the plates were incubated at room temperature for 1 hour. Wells were washed ten times with 300 μl TBS/0.1% Tween 20. […] The specificity of peptide-antibody binding was subsequently determined using both phage ELISA and SPOTs techniques.
# [5] = tested on: anti-RhD monoclonal antibody (T27); experiment: LiquiChip Ni-NTA microsphere bead assay (Luminex 100), anti-RhD; format: binding, Human; conditions: FIG. 12; peptide with C-terminal 6 Histidine tag; Luminex 100 Analyser
# Description: as §1, §2
# [6] = tested on: anti-RhD monoclonal antibody (T27); experiment: Modified gel agglutination assay with superparamagnetic TALON beads, anti-RhD; format: binding, Human; conditions: FIG. 13; His-tagged peptide; TALON Dynabeads; NaCl gel card; read visually; anti-Fy^b LM447 as comparison chamber
# Description: as §3, §4
# A 50 μl volume of diluted TALON beads was placed in the reaction chamber of an NaCl gel card (ID Microtyping System; Diamed), together with a 50 μl volume of diluted His-tagged peptide mimotope (e.g. RhD12) and 100 μl of test human monoclonal antibody (e.g. T27: anti-RhD). The gel card was incubated at 37° C. for 1 hour in an Incubator-ID (DiaMed). Following incubation, the card was centrifuged for 10 minutes in an ID Centrifuge 24S (DiaMed). Antibody-positive reactions are visualised by a layer of beads upon the surface of the gel matrix. […]
# [7] = tested on: anti-RhE monoclonal antibody E0002; experiment: SPOTs membrane hybridisation with anti-RhE monoclonal E0002; format: binding, Human; conditions: FIG. 9; 36 RhE peptide mimotopes; CPep75 (Spot 37), CPep76 (Spot 38) negative controls
# Description: as §5
# A membrane was placed in a 50 ml Falcon tube and blocked overnight at 4° C. with gentle agitation in TBS/0.25% Tween 20/5% skimmed milk powder. A 2 μg/ml dilution of the primary (1°) antibody (monoclonal or polyclonal) was prepared in TBS/0.25% Tween20/5% skimmed milk powder before incubation with the membrane for 1 hour at room temperature on a spiral rotor. Following 4 washes, each for 5 minutes with 20 ml of TBS/0.25% Tween20, the membrane was incubated for 1 hour at room temperature with a 1/5000 dilution of the secondary (2°) antibody, prepared in TBS/0.25% Tween20/5% skimmed milk powder. Peroxidase labelled rabbit anti-mouse IgG (Sigma) was used for the detection of the murine anti-Fy^a (LM487) and anti-Fy^b (LM447) 1° antibodies and peroxidase labelled goat anti-human IgG (Pharmacia) for the detection of the human 1° antibodies. Following 4 washes, each for 5 minutes with 20 ml of TBS/0.25% Tween20, the membrane was blotted to remove excess fluid. Bound antibody was detected by chemiluminescence. ECL detection reagents (Amersham Biosciences) were mixed and overlaid on the membrane for 2 minutes. The chemiluminescent substrate was removed and the membrane blotted to remove excess fluid. Positive spots were visualised following exposure to Hyperfilm ECL (Amersham Biosciences) for a series of short incubation times (5 seconds to 10 minutes).
# The RhD, RhE and Rhe peptide mimotopes (see Tables 4 & 5) were synthesised by SPOTs and hybridisation of the membranes was undertaken with the appropriate antibodies (Table 1). FIGS. 7-10 show examples of peptide mimotopes reacting specifically with the antibody originally used in their selection.
# [8] = tested on: anti-RhE monoclonal antibody E0002 (NaTH110-1D6); experiment: Biopanning of phage-peptide libraries with anti-RhE E0002; format: binding, Human; conditions: IgM antibody
# Excerpt: as §6
# For each target antibody/library combination, a separate well of a 96-well Immulon 4 flat-bottomed ELISA plate (Thermo Labsystems) was coated with 5 μg of antibody in 150 μl ELISA coating buffer (15 mM Na2CO3, 35 mM NaHCO3, pH9.6). Plates were sealed and incubated at 4° C. overnight. Unbound antibody was discarded and 350 μl of blocking buffer (0.1M NaHCO3/3% skimmed milk powder) was added to each well. Plates were sealed and incubated for 1 hour at 4° C. The blocking buffer was removed and the wells were washed six times with 300 μl TBS/0.1% Tween 20. Approximately 2×10^11 plaque forming units (pfu) in 100 μl TBS/0.1% Tween 20 were added to each well and the plates were incubated at room temperature for 1 hour. Wells were washed ten times with 300 μl TBS/0.1% Tween 20. Bound phage were eluted by incubation with 100 μl of 0.2M glycine-HCl/BSA, pH2.2 (1 mg/ml) for 10 minutes, then neutralised with 15 μl of 1M Tris-HCL (pH9.1). An aliquot of the Round 1 eluate was removed and titred. The remainder of the eluted phage were amplified by infection of E. coli ER2538 cells for 4.5 hours at 37° C. The cultures were centrifuged for 10 minutes at 10,000 rpm at 4° C. The supernatants were recovered, ⅙ volume PEG/NaCl (20% polyethylene glycol 8000; 2.5M NaCl) added, then incubated overnight at 4° C. The PEG-precipitated phage were centrifuged at 10,000 rpm for 15 minutes at 4° C. The supernatant was removed and the phage pellet resuspended in 200 μl TBS. […] The specificity of peptide-antibody binding was subsequently determined using both phage ELISA and SPOTs techniques.
# [9] = tested on: anti-RhE monoclonal antibody E0003 (NaTH110-IH4); experiment: Biopanning of phage-peptide libraries with anti-RhE E0003; format: binding, Human; conditions: IgM antibody
# Excerpt: as §6, §7
# [10] = tested on: anti-RhE monoclonal antibody E0001 (HIRO17); experiment: Biopanning of phage-peptide libraries with anti-RhE E0001; format: binding, Human; conditions: IgG1 antibody
# Excerpt: as §6, §7
substance,measurement,setting,value
FQPNPPPSFAAP [Fyb16],Binding of anti-Fy^b antibody LM447 to peptide immobilised on LiquiChip Ni-NTA microsphere beads (phycoerythrin signal),[1],specific binding
same,"Binding of anti-Fy^b antibody LM447 to peptide on superparamagnetic polystyrene beads, modified gel agglutination assay",[2],specific binding
"Fya15: Fya peptide mimotope, Table 3; contains sequence identical to the Fy^a polymorphism (SDGDYGA)",SPOTs binding of anti-Fy^a antibody LM487 to membrane-synthesised peptide,"[3]; FIG. 4, 37 peptides Fya1-37 synthesised as SPOTs",strong positive signal
same,Selection by biopanning with anti-Fy^a monoclonal antibody LM487,[4],bound
"Fya20: Fya peptide mimotope, Table 3; contains sequence identical to the Fy^a polymorphism (GIAEDDYGALSW)",Selection by biopanning with anti-Fy^a monoclonal antibody LM487,[4],bound
"PDGDYGANLEAAAP [CPep118, 14-mer immunisation peptide used to generate the anti-Fy^a antibody, reference compound]",Reciprocal SPOTs hybridisation: binding of anti-Fy^a monoclonal antibody,"[3]; FIG. 5, Spots 1-37 = Fya 1-37, Spots 38-40 = Fya17, Fya25, Fya35, Spot 41 Cpep75, 42 Cpep76, 43 CPep118, 44 Fyb1, membranes hybridised in parallel with both antibodies",Fy^a-specificity
"RhD12: RhD peptide mimotope, Table 4 (HQNPWLLWPRGF)",Binding of anti-RhD antibody T27 to peptide immobilised on LiquiChip Ni-NTA microsphere beads (phycoerythrin signal),[5],specific binding
same,"Binding of anti-RhD antibody T27 to peptide on superparamagnetic polystyrene beads, modified gel agglutination assay",[6],specific binding
"RhE18: RhE peptide mimotope, Table 5 (IPEEALRARFKT)",SPOTs binding of anti-RhE monoclonal antibody E0002,[7],Specific binding
same,Selection by biopanning with anti-RhE antibody E0002,[8],selected
same,Selection by biopanning with anti-RhE antibody E0003,[9],selected
"RhE19: RhE peptide mimotope, Table 5 (SFQDALLSRWYS)",SPOTs binding of anti-RhE monoclonal antibody E0002,[7],Specific binding
same,Selection by biopanning with anti-RhE antibody E0001,[10],selected
same,Selection by biopanning with anti-RhE antibody E0002,[8],selected
"RhE24: RhE peptide mimotope, Table 5 (GPSYYALITRYLGAA)",SPOTs binding of anti-RhE monoclonal antibody E0002,[7],Specific binding
same,Selection by biopanning with anti-RhE antibody E0002,[8],selected
same,Selection by biopanning with anti-RhE antibody E0003,[9],selected

# — patent US20100216661A1, “Diagnostic Assay” (priority 2007, published 2010)
